Biological target: T1, 5-HT1A serotonin receptor (Rattus norvegicus, UniProt P19327)
T1 construct: from tissue; host or cells: rat brain membranes (inferred from the cited Hall et al. procedure)
T1 sequence (P19327 1-422): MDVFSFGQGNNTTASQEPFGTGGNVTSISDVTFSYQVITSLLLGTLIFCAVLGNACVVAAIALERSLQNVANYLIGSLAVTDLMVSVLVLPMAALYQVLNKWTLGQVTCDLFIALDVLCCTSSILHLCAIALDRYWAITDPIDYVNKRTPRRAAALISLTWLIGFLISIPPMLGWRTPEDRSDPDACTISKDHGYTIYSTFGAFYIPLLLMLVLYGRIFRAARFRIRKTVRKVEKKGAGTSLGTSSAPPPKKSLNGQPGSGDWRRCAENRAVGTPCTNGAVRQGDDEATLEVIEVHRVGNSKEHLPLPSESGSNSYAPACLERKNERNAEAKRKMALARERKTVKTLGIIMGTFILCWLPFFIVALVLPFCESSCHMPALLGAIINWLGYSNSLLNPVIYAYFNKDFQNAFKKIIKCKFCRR
Experiment: displacement of [3H] 8-OHDPAT from the 5-HT1A serotonin receptor (procedure of Hall et al.)
Assay type: binding
Description: 8-OHDPAT (dipropylaminotetralin) from the 5-HT1A serotonin receptor following the procedure of Hall et al., J. Neurochem. 44, 1685 (1985).

Compound	IC50 [nM]
C[C@H](CN1CC=C(c2cccc3[nH]ccc23)CC1)Nc1ccccn1 [Example 1, {(R)-2-[4-(1H-Indol-4-yl)-(1,2,3,6-tetrahydro-pyridin-1-yl)]-1-methyl-ethyl}-(pyridin-2-yl)-amine]	11.6
C[C@H](CN1CC=C(c2cccc3[nH]ccc23)CC1)N(C(=O)C1CCCCC1)c1ccccn1 [Example 2]	1.7
